Data: PubChem BioAssay AID2060616 (Molecular Pharmacology Branch, DTP, NCI, 2025)

Tested on: 377384-186-R-J1-PDC complex spheroid viability
Experiment: Anticancer human tumor 377384-186-R-J1-PDC patient-derived pancreatic carcinoma cell line growth inhibition [CLK]
Conditions: for IC50: curve of first compound; for viability, T/C: stronger effect = lower value
In short: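 Multi-cell-type spheroids combined patient-derived tumor cells with HUVEC endothelial cells and human mesenchymal stem cells. Paired agents were dosed in half-log steps down from about clinical Cmax, or from 10 microM where Cmax was unknown.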

[1] = second compound 0.0316 µM, first compound 0.0316 µM
[2] = second compound 0.0316 µM, first compound 0.1 µM
[3] = second compound 0.0316 µM, first compound 0.316 µM
[4] = second compound 0.0316 µM, first compound 1 µM
[5] = second compound 0.0316 µM, first compound 3.16 µM
[6] = second compound 0.0316 µM, first compound 10 µM
[7] = second compound 0.1 µM, first compound 0.0316 µM
[8] = second compound 0.1 µM, first compound 0.1 µM
[9] = second compound 0.1 µM, first compound 0.316 µM
[10] = second compound 0.1 µM, first compound 1 µM
[11] = second compound 0.1 µM, first compound 3.16 µM
[12] = second compound 0.1 µM, first compound 10 µM
[13] = second compound 0.316 µM, first compound 0.0316 µM
[14] = second compound 0.316 µM, first compound 0.1 µM
[15] = second compound 0.316 µM, first compound 0.316 µM
[16] = second compound 0.316 µM, first compound 1 µM
[17] = second compound 0.316 µM, first compound 3.16 µM
[18] = second compound 0.316 µM, first compound 10 µM
[19] = second compound 1 µM, first compound 0.0316 µM
[20] = second compound 1 µM, first compound 0.1 µM
[21] = second compound 1 µM, first compound 0.316 µM
[22] = second compound 1 µM, first compound 1 µM
[23] = second compound 1 µM, first compound 3.16 µM
[24] = second compound 1 µM, first compound 10 µM
[25] = second compound 3.16 µM, first compound 0.0316 µM
[26] = second compound 3.16 µM, first compound 0.1 µM
[27] = second compound 3.16 µM, first compound 0.316 µM
[28] = second compound 3.16 µM, first compound 1 µM
[29] = second compound 3.16 µM, first compound 3.16 µM
[30] = second compound 3.16 µM, first compound 10 µM
[31] = second compound 10 µM, first compound 0.0316 µM
[32] = second compound 10 µM, first compound 0.1 µM
[33] = second compound 10 µM, first compound 0.316 µM
[34] = second compound 10 µM, first compound 1 µM
[35] = second compound 10 µM, first compound 3.16 µM
[36] = second compound 10 µM, first compound 10 µM
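Further: spheroids exposed to agents for 7 days before reading.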
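Wherever viability, T/C is given: luminescence signal used as a stand-in for viable cells.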

Molecule `Nc1ccn(C2OC(CO)C(O)C2(F)F)c(=O)n1` (stereo unspecified) + CNC(=O)c1ccc(Nc2nc(OC3CCCC3)c3c(-c4ccc5nc(C)oc5c4)c[nH]c3n2)c(OC)c1 has an IC50 (second compound 0.0316 µM) of under 31.6 nM, an IC50 (second compound 0.1 µM) of under 31.6 nM and an IC50 (second compound 0.316 µM) of under 31.6 nM. It also gave an IC50 (second compound 1 µM) of under 31.6 nM, an IC50 (second compound 3.16 µM) of under 31.6 nM and an IC50 (second compound 10 µM) of under 31.6 nM. For the same molecule, the viability, T/C [1] was 8.18%, the viability, T/C [2] was 3.36% and the viability, T/C [3] was 3.13%. It also gave a viability, T/C [4] of 2.68%, a viability, T/C [5] of 2.2% and a viability, T/C [6] of 1.72%. For the same molecule, the viability, T/C [7] was 6.64%, the viability, T/C [8] was 4.51% and the viability, T/C [9] was 2.85%. For the same molecule, the viability, T/C [10] was 2.62%, the viability, T/C [11] was 2.66% and the viability, T/C [12] was 2.22%. It also gave a viability, T/C [13] of 7.09%, a viability, T/C [14] of 3.96% and a viability, T/C [15] of 3.31%. The viability, T/C [16] was 2.62%, the viability, T/C [17] was 2.25% and the viability, T/C [18] was 1.52%. The viability, T/C [19] was 8.74%, the viability, T/C [20] was 4.85% and the viability, T/C [21] was 4.17%. The viability, T/C [22] was 3.63%, the viability, T/C [23] was 1.95% and the viability, T/C [24] was 1.24%. It also gave a viability, T/C [25] of 8.43%, a viability, T/C [26] of 6.12% and a viability, T/C [27] of 4.34%. For the same molecule, the viability, T/C [28] was 3.36%, the viability, T/C [29] was 3.71% and the viability, T/C [30] was 1.58%. It also gave a viability, T/C [31] of 9.23%, a viability, T/C [32] of 7.84% and a viability, T/C [33] of 5.26%. For the same molecule, the viability, T/C [34] was 3.45%, the viability, T/C [35] was 2.47% and the viability, T/C [36] was 1.32%.
With `O=C(c1cc(Cc2n[nH]c(=O)c3ccccc23)ccc1F)N1CCN(C(=O)C2CC2)CC1` + CNC(=O)c1ccc(Nc2nc(OC3CCCC3)c3c(-c4ccc5nc(C)oc5c4)c[nH]c3n2)c(OC)c1 the IC50 (second compound 0.0316 µM) was 6380 nM, the IC50 (second compound 0.1 µM) was 991 nM and the IC50 (second compound 0.316 µM) was under 31.6 nM. For the same molecule, the IC50 (second compound 1 µM) was under 31.6 nM, the IC50 (second compound 3.16 µM) was under 31.6 nM and the IC50 (second compound 10 µM) was under 31.6 nM. It also gave a viability, T/C [1] of 83.7%, a viability, T/C [2] of 84.7% and a viability, T/C [3] of 78.9%. It also gave a viability, T/C [4] of 75.9%, a viability, T/C [5] of 64.9% and a viability, T/C [6] of 40.3%. It also gave a viability, T/C [7] of 52.1%, a viability, T/C [8] of 50.2% and a viability, T/C [9] of 57%. The viability, T/C [10] was 49%, the viability, T/C [11] was 38.3% and the viability, T/C [12] was 29.7%. For the same molecule, the viability, T/C [13] was 22.3%, the viability, T/C [14] was 17.4% and the viability, T/C [15] was 20.7%. It also gave a viability, T/C [16] of 17.8%, a viability, T/C [17] of 15.3% and a viability, T/C [18] of 17.5%. It also gave a viability, T/C [19] of 23.3%, a viability, T/C [20] of 18.6% and a viability, T/C [21] of 17.9%. The viability, T/C [22] was 21.3%, the viability, T/C [23] was 20% and the viability, T/C [24] was 17.4%. It also gave a viability, T/C [25] of 19.6%, a viability, T/C [26] of 21.1% and a viability, T/C [27] of 22.2%. For the same molecule, the viability, T/C [28] was 19.4%, the viability, T/C [29] was 22% and the viability, T/C [30] was 18.4%. The viability, T/C [31] was 18.7%, the viability, T/C [32] was 19.8% and the viability, T/C [33] was 21.8%. The viability, T/C [34] was 19.8%, the viability, T/C [35] was 18.9% and the viability, T/C [36] was 15.2%.
For `O=c1[nH]cc(F)c(=O)[nH]1` + CNC(=O)c1ccc(Nc2nc(OC3CCCC3)c3c(-c4ccc5nc(C)oc5c4)c[nH]c3n2)c(OC)c1, the IC50 (second compound 0.0316 µM) was 3650 nM, the IC50 (second compound 0.1 µM) was 46.4 nM and the IC50 (second compound 0.316 µM) was under 31.6 nM. The IC50 (second compound 1 µM) was under 31.6 nM, the IC50 (second compound 3.16 µM) was under 31.6 nM and the IC50 (second compound 10 µM) was under 31.6 nM. For the same molecule, the viability, T/C [1] was 98%, the viability, T/C [2] was 98.3% and the viability, T/C [3] was 96%. For the same molecule, the viability, T/C [4] was 82.1%, the viability, T/C [5] was 50.3% and the viability, T/C [6] was 46.3%. The viability, T/C [7] was 49.6%, the viability, T/C [8] was 50.9% and the viability, T/C [9] was 45.4%. The viability, T/C [10] was 54.5%, the viability, T/C [11] was 41.6% and the viability, T/C [12] was 43.5%. For the same molecule, the viability, T/C [13] was 20.4%, the viability, T/C [14] was 20.3% and the viability, T/C [15] was 16.7%. For the same molecule, the viability, T/C [16] was 16.4%, the viability, T/C [17] was 14.5% and the viability, T/C [18] was 14%. It also gave a viability, T/C [19] of 22%, a viability, T/C [20] of 17.8% and a viability, T/C [21] of 19.2%. The viability, T/C [22] was 14.9%, the viability, T/C [23] was 13.2% and the viability, T/C [24] was 10.7%. The viability, T/C [25] was 20.2%, the viability, T/C [26] was 19.7% and the viability, T/C [27] was 17.6%. For the same molecule, the viability, T/C [28] was 16.7%, the viability, T/C [29] was 12.6% and the viability, T/C [30] was 9.93%. For the same molecule, the viability, T/C [31] was 16.8%, the viability, T/C [32] was 17.2% and the viability, T/C [33] was 17.1%. For the same molecule, the viability, T/C [34] was 16%, the viability, T/C [35] was 10.8% and the viability, T/C [36] was 11.4%.
